Source: patent publication US20200239587A1, “SENSITIZATION OF TUMORS TO THERAPIES THROUGH ENDOGLIN ANTAGONISM” (Cedars-Sinai Medical Center, priority 2016, published 2020)
“Also recorded” adds a separate entry of the source.

Experiments:
[1] = test system: CD105 cell surface expression in human CW22Rv1 epithelia and mouse prostatic fibroblasts; experiment: 3D co-culture, CD105 cell surface expression by FACS; format: cell-based; details: hypoxia (2% O2), 72 hours; mouse prostatic fibroblasts and human prostate cancer epithelia
Procedure: After 72 hours, the cells were dissociated and assessed by FACS for CD105 expression as shown.
A modified version of the 3D organotypic co-culture system was performed in a collagen matrix similar to that previously reported (Stark et al., 1999, J Invest Dermatol 112, 681-691). Collagen matrix gels were prepared by mixing five volumes of rat tail collagen I with two volumes of matrigel (NCI), one volume of 10× DMEM medium (GE Healthcare Life Sciences), and one volume of FBS (Atlanta Biologicals), Rv1 and primary mouse prostatic fibroblasts were combined in a 1:3 ratio. Nylon squares were coated with collagen and placed on metal grids in a 6-well plate. Gel plugs (150 μl) were transferred onto the nylon squares and media was added to the level of the nylon mesh. After 72 hours, the cells were dissociated from the matrix with collagenase and dispersed for FACS analysis.
FACS experiments were performed with eBiosciences antibodies: anti-human Stro-1-FITC (340105), anti-human CD90-PE (12-0909-42), anti-human CD105-APC (17-1057-41), anti-mouse CD105-APC (17-1051-82), anti-human CD117-PE-Cy7 (15-1178-41), anti-human Ki67-PECy7 (25-5699-41), and anti-human EpCAM-PE (12-9326-41). All events were acquired on a BD LSRII flow cytometer in the Cedars-Sinai Medical Center FACS core installed with BD FACSDiva software. Files were analyzed using FlowJo software v10.2. […]

C42B = experiment: MTT proliferation assay; format: cell-based, human; details: TRC105 plus enzalutamide
Procedure: (§1) CW22Rv1, C42B, and PC3 cells from ATCC were expanded as directed. Prostatectomy specimens from Cedars-Sinai Medical Center or the Greater Los Angeles Veterans Affairs were cultured to generate NAF and CAF cells using the same method, as C57BL/6 mouse wild-type prostatic fibroblasts were grown as previously reported (Franco et al., 2011, Cancer research 71, 1272-1281; Kiskowski et al., 2011, Cancer research 68, 4709-4718). TRC105 and M1043 were provided by TRACON Pharmaceuticals, Inc. (San Diego, Calif.). Enzalutamide (Xtandi) was purchased from Medivation (San Francisco, Calif.).
(§2) 3000 cells per 96-well were treated for 72 hours using 5 wells per treatment. MTT reagent (M6494, Life Technologies) was prepared as directed, incubated for one hour at 37° C., and analyzed using manufacturer's recommendations.

PC3 cells = experiment: MTT proliferation assay; format: cell-based, human; details: enzalutamide in the presence of TRC105
Procedure: as §1, §2

Rv1 = experiment: MTT proliferation assay; format: cell-based, human; details: TRC105 plus enzalutamide
Procedure: as §1, §2

[2] = test system: BMP dependent CD105 signaling in 22Rv1; experiment: BMP-stimulated phosphorylated-SMAD1/5 and ID1 expression; format: cell-based, human; details: stimulated with 50 ng/mL BMP
Procedure: FIG. 18A) Cell surface CD105 expression was measured in PC3, C42b, and 22Rv1 72 hours after 4 Gy irradiation treatment by FACS analysis and compared to cells not irradiated (control). FIG. 18B) Cell surface CD105 expression was measured in cell lines following a dose range of irradiation (0, 2, 4, or 6 Gy). FIG. 18C) The durability of cell surface CD105 expression in 22Rv1 was determined 0, 0.5, 4, 8, 24, 48, 72, 120, and 168 hours following 4 Gy irradiation. CD105 cell surface expression fold change was normalized to levels expressed prior to irradiation. FIG. 18D) Western blot for phosphorylated-Smad1/5 was measured in CW22Rv1 cells in the presence or absence of serum starvation and treatment with 50 ng/ml BMP4 or 1 μg/ml TRC105. β-actin expression served as the loading control. FIG. 18E) Annexin-V expression was measured in 22Rv1 cells by FACS analysis 5 days following 4 Gy irradiation in the presence and absence of TRC105. FIG. 18F) Clonogenic assay was measured 10 days following irradiation of CW22Rv1 and C42b cells in a dose range of 0 to 6 Gy in the presence of 1 μg/ml IgG or TRC105. […]
Total RNA was extracted using the RNeasy kit (Qiagen). […] Quantitative RT-PCR was performed with 5 replicates using the Step One Real-Time PCR system (Applied Biosystems). […] For RNA-sequencing, Ion Proton AmpliSeq Transcriptome RNA Sequencing was performed achieving an average of 3M reads. […]

HPAF-II = experiment: Clonogenic survival assay with radiation; format: cell-based, human; details: p53 mutant pancreatic cancer cell line
Procedure: (§3) Assays were performed on cell lines with p53 null prostate cancer cell line, FIG. 23A) PC3 and two p53 mutant pancreatic cancer cell lines, FIG. 23B) MIAPACA-2 and FIG. 23C) HPAF-II with indicated doses of radiation. Breast cancer cell lines with intact p53, FIG. 23D) MCF7 and mutant yet functional p53, FIG. 23E) MDA-MB23 were however radio-sensitized by the 1 μg/ml TRC105.

MCF7 = experiment: Clonogenic survival assay with radiation; format: cell-based, human; details: breast cancer cell line with intact p53; 1 μg/ml TRC105
Procedure: as §3

MDAMB231 = experiment: Clonogenic survival assay with radiation; format: cell-based, human; details: breast cancer cell line with mutant yet functional p53; 1 μg/ml TRC105
Procedure: as §3

PC3 = experiment: Clonogenic survival assay with radiation; format: cell-based, human; details: p53 null prostate cancer cell line
Procedure: as §3

prostatic epithelia = experiment: Cancer stem cell markers and sphere-forming units; format: cell-based; details: antagonizing endoglin
[3] = test system: tissue recombination orthotopic xenografts of primary human CAF and Rv1; experiment: Tissue recombination orthotopic xenografts of primary human CAF and Rv1
Source text: FIG. 13A) Mice were orthotopically grafted with tissue recombinants of CW22Rv1 and CAF. […] FIG. 13B) H&E staining was followed by immune-localization for phosphorylated-histoneH3 (PH-H3), TUNEL, and chromogranin A (ChromA). Scale bar represents 32 μm. The mitotic (PH-H3) and cell death (TUNEL) indexes were plotted. n>5, error bars are mean+/−SD and *p<0.05, **p<0.01, ***p<0.001, compared to control unless otherwise indicated.
Male beige/SCID mice (Envigo), 6-8 or 10-12 weeks old, were used for subrenal capsule or prostatic orthotopic grafting, respectively, as previously described (Banerjee et al., 2014, Oncogene 33, 4924-4931; Hayward et al., 2001, Cancer Res 61, 8135-8142). In accordance with institutional animal care and use committee approval, 2×10^5 CW22Rv1 cells and 6×10^5 stromal cells were suspended in 20 μL type I collagen to be grafted into the subrenal capsule of mice castrated after seven days and sacrificed 21 days after castration. […] Tumor volume was calculated using the modified ellipsoid formula volume3=π/6×(width)2×length.
Paraffin embedded tissues were sectioned (5 μm thick) were subjected to hematoxylin and eosin (H&E) staining and immunohistochemistry as previously reported (Placencio et al., 2008, Cancer research 68, 4709-4718). […] Anti-phosphorylated histone H3 (06-570, Millipore), anti-CD105 (NCL-CD105, Leica Microsystems), anti-Ki67 (ab16667, Abcam), and anti-chromogranin A (sc-13090, Santa Cruz Biotechnology), anti-SFRP1 (601-401-475S, Rockland Immunochemicals), and anti-survivin (2808, Cell Signaling) antibodies were incubated at 4° C. overnight. Secondary antibody development was performed with Dako Cytomation mouse or rabbit kits and visualized using 3,3′-diaminobenzidine tetrahydrochloride substrate. TUNEL staining was performed per manufacturer's protocol (S7100, Millipore). Slides were scanned with a Leica Biosystems Aperio AT. Up to five fields per tissue were quantitated with Fiji (ImageJ) using a custom written macro. Mitotic and death index were quantitated by taking the total number of positively-stained nuclei divided by the total number of nuclei.

In the case of “TRC105: partially humanized monoclonal antibody that blocks BMP signaling; human-specific CD105 (endoglin) neutralizing antibody from Tracon Pharmaceuticals”, the “enzalutamide-induced CD105 cell surface expression” value [1] is reported as “down regulated”, the “cell proliferation (MTT), addition of TRC105 to enzalutamide” value (C42B) is reported as “no additional impact” and the “viability (MTT)” value (PC3 cells) is reported as “insensitive”. The “cell proliferation (MTT), addition of TRC105 to enzalutamide” value (Rv1) was “no additional impact”, the “minimum dose that effectively blocked phosphorylated-SMAD1/5 activation and expression of ID1” value [2] was 1 µg/mL and the “radiation sensitivity, clonogenic response” value (HPAF-II) was “neither the HPAF-II nor MIAPACA-2 cell lines treated with radiation showed a change in clonogenic response”. The “radiation sensitivity, clonogenic survival” value (MCF7) was “positively sensitized to irradiation; also recorded: radio-sensitized”, the “radiation sensitivity, clonogenic survival” value (MDAMB231) was “positively sensitized to irradiation; also recorded: radio-sensitized” and the “radiation sensitivity, clonogenic survival” value (PC3) was “no evidence of radiation sensitization”. The “cancer stem cell markers (CD44, ALDH, Oct4, Sox) and sphere-forming units” value (prostatic epithelia) was “down regulated”, the “NED, chromogranin A staining” value ([3]; TRC105 added to ATT) was “reduced” and the “proliferation or cell death” value ([3]; TRC105 alone compared to control) was “little change in either proliferation or cell death”. For the same substance, the tumor size ([3]; TRC105 alone, p<0.05) was “smaller than vehicle”, the tumor volume ([3]; TRC105 in enzalutamide treated castrated mice vs vehicle or enzalutamide (p<0.01 and <0.05)) was “significant reduction in tumor volume” and the tumor size ([3]; TRC105 treatment in castrated mice) was “reduced tumor size”. The “proliferation (phosphorylated-histone H3)” value ([3]; castration, enzalutamide and TRC105 vs control or castrated enzalutamide group (p<0.05 and <0.001)) was “substantially reduced proliferation”, the TUNEL staining ([3]; castration, enzalutamide and TRC105 vs control or enzalutamide (p<0.05)) was “increased TUNEL staining” and the “efficacy of combination of TRC105 with ADT” value ([3]; prostate cancer models, in vivo) was “superior to either one alone”.
